Results from patent publication US4710578A, “Isothiuronium salts” (Peremartoni Vegyipari Vallalat, priority 1984, dated 1987).
Like-named read-outs stand apart in the source and are kept apart here.

Columns and labels:
[1] = system: human polymorphonuclear leucocytes; assay: Direct /random/ migration of human polymorphonuclear leucocytes on agarose microdrops; type: cell-based; conditions: for Effect on migration at a higher dose: 10 μg/ml; for Direct (random) migration of polymorphonuclear cells / Optimal dose for increase of migration: healthy donors
Protocol: Spontaneous (random) migration of leukocytes was measured on agarose microdrops according to the method of McCoy et al (1977) by carrying out some minor modifications (Kalmar and Gergely, 1982).
[…] agarose drops (0.2%) were placed on migration plates (Greiner, German Federal Republic). TC 199 liquid nutrient medium was added and the plates were air-tightly closed. After 24 hours the migration area were measured under a stereomicroscope. The migration area were expressed in mm^2.

[2] = system: neutrophilic granulocytes, lymphocytes and macrophages; assay: Preliminary rapid test: immunostimulant effect; type: in vivo, CFLP male mice; set-up: key: 0: if there is no difference in the number and activity of the said cells, no increase can be declared over the control; medium: Medium effect is observed if the increase of cell number or activity over the control amounts to 20%; The effect is strong if the increase of the cell number and activity of the immune system is more than 20% higher than the control; conditions: oral, one-tenth of LD50; 24 hours
[3] = system: P-388 mouse lymphoma cells; assay: In vitro antitumor effect, P-388; type: cell-based; conditions: 400 μg/ml
NK-ly-ascites lymphoma = NK-ly-ascites lymphoma in vivo; set-up: species or system CFLP male mice; conditions: for Activity against NK-ly-ascites tumor: concentration below one-tenth of the LD50 value; for Survival rate and lifetime: dose-dependant
[4] = system: human bone metastasis of mammal tumors, ovary tumors and pancreas tumors; assay: Human tumors, oral treatment for 6-12 months; type: in vivo; conditions: oral daily dose 30-120 mg (0.5-2 mg/kg)
NK-yl ascites tumor = assay: Combinations with known cytostatic agents in NK-ly ascites tumor; type: in vivo, CFLP mice; conditions: with cyclophosphamide, carnomustine, degranol, dibromo dulcitol or dibromo mannitol
tumor cells = assay: Testing of antitumor effect (overall)
human lymphocytes = assay: Immunological tests (overall; NK and K cell activity); type: cell-based
Protocol: Lymphocytes were separated on Ficoll-Uromiro (Boyum 1968) gradient from the venal blood of healthy donors and patients suffering from malignant lymphoma and metastatizing solid tumours, respectively. When selecting the patients belonging to the latter group, the decreased ADCC and NK activity was taken into consideration. The phagocytes were removed by treatment with iron powder and a magnet.
ADCC was determined according to the method of Perlmann and Perlmann (1970) with minor modifications (Lang et al, 1981). Chicken erythrocytes labelled with 10^5 51 Cr and coated with anti-chicken erythrocyte rabbit-serum were incubated with the lymphocytes for 4 hours at 37° C. The reaction having been stopped the activity of the supernatant of the centrifuged cells was determined in a gamma-counter. The rate of chrome-release was expressed as the cytotoxicity index (CI %). This value was calculated as described in one of our earlier publications (Lang et al., 1980)--(see Table I).
NK activity was determined by the method of Jondal and Pross (1975) by using minor modifications (Lang et al, 1981). K-562 tumor cells labelled by ^51 Cr were incubated with effector cells in a TC 199 liquid nutrient medium comprising 10% of decomplemented calf serum. The reaction having been stopped the radioactivity of the superntant of the centrifuged cells (chrome release) was counted in a gamma-counter. The killing of the tumor cells (cytotoxicity index %) was expressed as the difference of the test release and spontaneous release.
Statistical calculations were carried out by means of a mono-sample test. […] The said effect may be so strong that cytotoxic activity decreased to one-tenth of the original value may be restored to the oroginal level (Table II).

[5] = system: neutrophylic granulocytes and limphocytes; conditions: mouse, in vivo, po
[6] = system: hemodinamical parameters and respiration function of cats
ticks (Ixodes ricinus) = assay: Anti-parasital effect in dogs infected by ticks; type: in vivo; conditions: oral 1-2 mg/kg; six-eight hours after administration
Protocol: Compounds of the Formula I were added orally to dogs infected by ticks (Ixodes ricinus) for three days. Thus N-aminoiminomethyl-S-allyl-isothiuronium hydrochloride was administered in an oral dose of 1-2 mg/kg and the killing rate of ticks was registered.

heart muscle = assay: Cardioprotective effect in isoprenaline necrosis; type: in vivo, male CFY rats; conditions: 1-5 mg/kg i.p. or 10-50 mg/kg p.o.; isoproterenol 5 mg/kg i.p.; two weeks
Protocol: 5 mg/kg of isoproterenol are i.p. administered to male CFY rats (weight 250-300 g). In each group 10 animals were used. One part of the animals served as control and the other were treated with a 1-5 mg/kg i.p. or 10-50 mg/kg p.o. dose of compound No. 14. After two weeks the hearts were subjected to hystological evaluation. The ratio of necrotized and intact area of heart muscle were determined.

ascites lymphoma cells = assay: Preliminary rapid test: antitumor effect; type: in vivo, CFLP male mice; conditions: oral, one-tenth of LD50; 24 hours
[7] = in vivo, 24 h

C=CCSC(=N)NC(=N)N [Example 11, N-Aminoiminomethyl-S-Allyl-Isothiuronium Bromide]
Effect on migration at a higher dose [1]: less expressed | Direct (random) migration of polymorphonuclear cells [1]: increased | Optimal dose for increase of migration [1]: 1.0 µg/mL | Immunostimulant effect [2]: strong (The effect is strong if the increase of the cell number and activity of the immune system is more than 20% higher than the control) | Activity on P-388 cells on increasing the concentration [3]: the activity does not become stronger | Activity against NK-ly-ascites tumor (NK-ly-ascites lymphoma): active agains Nk-ly-ascites tumor in a concentration below one-tenth of the LD50 value | Survival rate and lifetime (NK-ly-ascites lymphoma): increase survival rate and lifetime in a dose-dependant manner | Cytotoxical dose range (NK-ly-ascites lymphoma; mouse, in vivo): 250 to 500 mg/kg | Clinical outcome in human tumors [4]: significant improvement or reconvalescence | Antitumor effect of combination vs cytostatic agent alone (NK-yl ascites tumor): the antitumor effect was strengthened | Immunodepression of combination vs cytostatic agent alone (NK-yl ascites tumor): immunodepression decreased | Antitumor effect (tumor cells): outstanding antitumor effect | Immunostimulant effect (human lymphocytes): outstanding immunostimulant effect | Increase of normal and strongly decreased NK and K cell activity (human lymphocytes): significant increase of normal and strongly decreased NK and K cell activity, even above the normal level | Toxic effect [5]: 0 | Hemodinamical parameters and respiration function ([6]; 10 mg/kg i.v., opened and closed chest): does not considerably effect the hemodinamical parameters and respiration function | Left ventricular pressure and frequency effects ([6]; 50 mg/kg i.v.): significant and long-lasting | Hemodynamical changes ([6]; 100 mg/kg i.v.): strong hemodynamical changes were observed | Left ventricular pressure and frequency ([6]; above 10 mg/kg i.v.): decreased | Lethality ([6]; in vivo): the cats did not perish | LD50 at 24 h (in vivo; ip): 320 ± 30 mg/kg | LD50 at 24 h (in vivo; po): 2380 ± 320 mg/kg

C=CCSC(=N)NC(=N)N [Example 12, N-Aminoiminomethyl-S-Allyl-Isothiuronium Chloride]
Killing rate of ticks (ticks (Ixodes ricinus)): all ticks were killed | Necrosis of heart muscle (heart muscle): significant decrease of necrosis

N=C(N)NC(=N)SCCO [Example 16, N-Aminoiminomethyl-S-(2-Hydroxyethyl)-Isothiuronium Chloride]
Immunostimulant effect [2]: strong (The effect is strong if the increase of the cell number and activity of the immune system is more than 20% higher than the control) | Antitumor effect of combination vs cytostatic agent alone (NK-yl ascites tumor): the antitumor effect was strengthened | Immunodepression of combination vs cytostatic agent alone (NK-yl ascites tumor): immunodepression decreased | Immunostimulant effect (human lymphocytes): outstanding immunostimulant effect | Increase of normal and strongly decreased NK and K cell activity (human lymphocytes): significant increase of normal and strongly decreased NK and K cell activity, even above the normal level | Toxic effect [5]: 0 | LD50 at 24 h (in vivo; ip): 1680 ± 210 mg/kg | LD50 at 24 h (in vivo; po): 3280 ± 460 mg/kg

N=C(N)NC(=N)SCc1ccccc1 [Example 18, N-Aminoiminomethyl-S-Benzyl-Thiuronium Chloride]
Antitumor effect (ascites lymphoma cells): increase | Immunostimulant effect [2]: 0 | Toxic effect [5]: 0 | LD50 at 24 h (in vivo; po): 2420 ± 260 mg/kg

N-Aminoiminomethyl-S-(1-Chloro-2-Hydroxy-Propyl)-Isothiuronium Bromide [Example 14]
Effect on migration at a higher dose [1]: less expressed | Direct (random) migration of polymorphonuclear cells [1]: increased | Optimal dose for increase of migration [1]: 1.0 µg/mL | Immunostimulant effect [2]: weak | Activity against NK-ly-ascites tumor (NK-ly-ascites lymphoma): active agains Nk-ly-ascites tumor in a concentration below one-tenth of the LD50 value | Survival rate and lifetime (NK-ly-ascites lymphoma): increase survival rate and lifetime in a dose-dependant manner | Antitumor effect of combination vs cytostatic agent alone (NK-yl ascites tumor): the antitumor effect was strengthened | Immunodepression of combination vs cytostatic agent alone (NK-yl ascites tumor): immunodepression decreased | Antitumor effect (tumor cells): outstanding antitumor effect | LD50 [7]: 2380 mg/kg | LD50 ([7]; po): 1240 ± 160 mg/kg
